In ChEMBL document CHEMBL1127973, “A comparative molecular field analysis derived model of the binding of taxol analogues to microtubules” (Bioorg Med Chem Lett, 1994):

Biological target: Tubulin (Homo sapiens) (UniProt P68371+Q9H4B7+P0DPH7+P68366+Q13509+Q71U36+P04350+Q3ZCM7+P07437+P68363+Q9BQE3+Q6PEY2+Q13885+Q9BVA1+Q9BUF5)
Assay: Binding affinity to microtubules, activity expressed as ID50 of compound/ID50 of paclitaxel
Type: protein-complex assay

SMILES | ID50 ratio
CCC(=O)O[C@H]1C[C@@]2(O)[C@@H](OC(=O)c3ccccc3)[C@@H]3[C@]4(OC(C)=O)CO[C@@H]4C[C@H](O)[C@@]3(C)C(=O)[C@H](OC(C)=O)C(=C1C)C2(C)C | 52
CC(=O)O[C@H]1C(=O)[C@@]2(C)[C@H]([C@H](OC(=O)c3ccccc3)[C@]3(O)C[C@H](OC(=O)C[C@@H](NC(=O)OC(C)(C)C)c4ccccc4)C(C)=C1C3(C)C)[C@]1(OC(C)=O)CO[C@@H]1C[C@@H]2O | 4.1
C/C=C(\C)C(=O)N[C@@H](c1ccccc1)[C@@H](O)C(=O)O[C@H]1C[C@@]2(O)[C@@H](OC(=O)c3ccccc3)[C@@H]3[C@]4(OC(C)=O)CO[C@@H]4C[C@H](O)[C@@]3(C)C(=O)[C@H](OC(C)=O)C(=C1C)C2(C)C | 1.5
CC(=O)O[C@H]1C(=O)[C@@]2(C)[C@H]([C@H](OC(=O)c3ccccc3)[C@]3(O)C[C@H](OC(=O)[C@H](O)[C@@H](NC(=O)/C(C)=N/NC(=O)OC(C)(C)C)c4ccccc4)C(C)=C1C3(C)C)[C@]1(OC(C)=O)CO[C@@H]1C[C@@H]2O | 14.1
CC(=O)O[C@H]1C(=O)[C@@]2(C)[C@H]([C@H](OC(=O)c3ccccc3)[C@]3(O)C[C@H](OC(=O)[C@H](O)Cc4ccccc4)C(C)=C1C3(C)C)[C@]1(OC(C)=O)CO[C@@H]1C[C@@H]2O | 13.2
CC(=O)O[C@H]1C(=O)[C@@]2(C)[C@H]([C@H](OC(=O)c3ccccc3)[C@]3(O)C[C@H](OC(=O)[C@H](O)[C@@H](NC(=O)c4ccc(F)cc4)c4ccccc4)C(C)=C1C3(C)C)[C@]1(OC(C)=O)CO[C@@H]1C[C@@H]2O | 1.2
CC(=O)O[C@H]1C(=O)[C@@]2(C)[C@H]([C@H](OC(=O)c3ccccc3)[C@]3(O)C[C@H](OC(=O)[C@H](O)[C@@H](NC(=O)OCc4ccccc4)c4ccccc4)C(C)=C1C3(C)C)[C@]1(OC(C)=O)CO[C@@H]1C[C@@H]2O | 3.3
CC(=O)O[C@H]1C(=O)[C@@]2(C)[C@H]([C@H](OC(=O)c3ccccc3)[C@]3(O)C[C@H](OC(=O)[C@H](O)[C@@H](NC(=O)OC(C)(C)C)c4ccco4)C(C)=C1C3(C)C)[C@]1(OC(C)=O)CO[C@@H]1C[C@@H]2O | 1.7
CC(=O)O[C@@]12CO[C@@H]1C[C@H](O)[C@@]1(C)C(=O)[C@H](O)C3=C(C)[C@@H](OC(=O)[C@H](O)[C@@H](NC(=O)OC(C)(C)C)c4ccccc4)C[C@@](O)([C@@H](OC(=O)c4ccccc4)[C@H]21)C3(C)C (stereo in doubt; 40) | 0.5
CC(=O)O[C@H]1C(=O)[C@@]2(C)[C@H]([C@H](OC(=O)c3ccccc3)[C@]3(O)C[C@H](OC(=O)[C@H](C)O)C(C)=C1C3(C)C)[C@]1(OC(C)=O)CO[C@@H]1C[C@@H]2O | 6.4
CC(=O)O[C@H]1C(=O)[C@@]2(C)[C@H]([C@H](OC(=O)c3ccccc3)[C@]3(O)C[C@H](OC(=O)[C@@H](O)Cc4ccccc4)C(C)=C1C3(C)C)[C@]1(OC(C)=O)CO[C@@H]1C[C@@H]2O | 15.7
CC(=O)O[C@H]1C(=O)[C@@]2(C)[C@H]([C@H](OC(=O)c3ccccc3)[C@]3(O)C[C@H](OC(=O)[C@@H](C)O)C(C)=C1C3(C)C)[C@]1(OC(C)=O)CO[C@@H]1C[C@@H]2O | 5.6
C/C=C(\C)C(=O)N[C@@H](c1ccccc1)[C@@H](O)C(=O)O[C@H]1C[C@@]2(O)[C@@H](OC(=O)c3ccccc3)[C@@H]3[C@]4(OC(C)=O)CO[C@@H]4C[C@H](O)[C@@]3(C)C(=O)[C@H](O)C(=C1C)C2(C)C | 5
CC(=O)O[C@@]12CO[C@@H]1C[C@H](O)[C@@]1(C)C(=O)[C@H](O)C3=C(C)[C@@H](OC(=O)C[C@H](NC(=O)OC(C)(C)C)c4ccccc4)C[C@@](O)([C@@H](OC(=O)c4ccccc4)[C@H]21)C3(C)C | 2.3
CCCCCC(=O)N[C@@H](c1ccccc1)[C@@H](O)C(=O)O[C@H]1C[C@@]2(O)[C@@H](OC(=O)c3ccccc3)[C@@H]3[C@]4(OC(C)=O)CO[C@@H]4C[C@H](O)[C@@]3(C)C(=O)[C@H](OC(C)=O)C(=C1C)C2(C)C | 0.4
CC(=O)O[C@@]12CO[C@@H]1C[C@H](O)[C@@]1(C)C(=O)CC3=C(C)[C@@H](OC(=O)[C@H](O)[C@@H](NC(=O)c4ccccc4)c4ccccc4)C[C@@](O)([C@@H](OC(=O)c4ccccc4)[C@H]21)C3(C)C (stereo in doubt; 19) | 106
CC(=O)O[C@@]12CO[C@@H]1C[C@H](O)[C@@]1(C)C(=O)[C@H](O)C3=C(C)[C@@H](OC(=O)C[C@@H](O)[C@@H](NC(=O)OC(C)(C)C)c4ccccc4)C[C@@](O)([C@@H](OC(=O)c4ccccc4)[C@H]21)C3(C)C | > 27

Continued, values first:

ID50 ratio | SMILES
4.5 | CC(=O)O[C@H]1C(=O)[C@@]2(C)[C@H]([C@H](OC(=O)c3ccccc3)[C@]3(O)C[C@H](OC(=O)[C@@H](O)[C@H](NC(=O)c4ccccc4)c4ccccc4)C(C)=C1C3(C)C)[C@]1(OC(C)=O)CO[C@@H]1C[C@@H]2O
1.2 | CC(=O)O[C@H]1C(=O)[C@@]2(C)[C@H]([C@H](OC(=O)c3ccccc3)[C@]3(O)C[C@H](OC(=O)[C@H](O)[C@@H](NC(=O)CC(C)C)c4ccccc4)C(C)=C1C3(C)C)[C@]1(OC(C)=O)CO[C@@H]1C[C@@H]2O
2 | CC(=O)O[C@H]1C(=O)[C@@]2(C)[C@H]([C@H](OC(=O)c3ccccc3)[C@]3(O)C[C@H](OC(=O)[C@H](O)[C@@H](NC(=O)c4ccc([N+](=O)[O-])cc4)c4ccccc4)C(C)=C1C3(C)C)[C@]1(OC(C)=O)CO[C@@H]1C[C@@H]2O
2 | CC(=O)O[C@H]1C(=O)[C@]2(C)[C@@H](OC(C)=O)C[C@H]3OC[C@@]3(OC(C)=O)[C@H]2[C@H](OC(=O)c2ccccc2)[C@]2(O)C[C@H](OC(=O)[C@H](O)[C@@H](NC(=O)c3ccccc3)c3ccccc3)C(C)=C1C2(C)C
> 27 | CC(=O)O[C@@]12CO[C@@H]1C[C@H](O)[C@@]1(C)C(=O)[C@H](O)C3=C(C)[C@@H](OC(=O)C[C@@H](O)[C@@H](NC(=O)c4ccccc4)c4ccccc4)C[C@@](O)([C@@H](OC(=O)c4ccccc4)[C@H]21)C3(C)C
2.6 | CC(=O)O[C@H]1C(=O)[C@@]2(C)[C@H]([C@H](OC(=O)c3ccccc3)[C@]3(O)C[C@H](OC(=O)[C@H](O)[C@@H](NC(=O)C(C)(C)C)c4ccccc4)C(C)=C1C3(C)C)[C@]1(OC(C)=O)CO[C@@H]1C[C@@H]2O
2 | CC(=O)O[C@H]1C(=O)[C@@]2(C)[C@H]([C@H](OC(=O)c3ccccc3)[C@]3(O)C[C@H](OC(=O)[C@H](O)[C@@H](NC(=O)c4ccc(N=[N+]=[N-])cc4)c4ccccc4)C(C)=C1C3(C)C)[C@]1(OC(C)=O)CO[C@@H]1C[C@@H]2O
0.8 | CC(=O)O[C@H]1C(=O)[C@@]2(C)[C@H]([C@H](OC(=O)c3ccccc3)[C@]3(O)C[C@H](OC(=O)[C@H](O)[C@@H](NC(=O)c4ccco4)c4ccccc4)C(C)=C1C3(C)C)[C@]1(OC(C)=O)CO[C@@H]1C[C@@H]2O
0.9 | CC(=O)O[C@H]1C(=O)[C@@]2(C)[C@H]([C@H](OC(=O)c3ccccc3)[C@]3(O)C[C@H](OC(=O)[C@H](O)[C@@H](NC(=O)c4ccccc4)c4ccoc4)C(C)=C1C3(C)C)[C@]1(OC(C)=O)CO[C@@H]1C[C@@H]2O
> 22.4 | CC(=O)O[C@H]1C(=O)[C@]2(C)[C@@H](OC(=O)c3c(F)c(F)c(N=[N+]=[N-])c(F)c3F)C[C@H]3OC[C@@]3(OC(C)=O)[C@H]2[C@H](OC(=O)c2ccccc2)[C@]2(O)C[C@H](OC(=O)[C@H](O)[C@@H](NC(=O)c3ccccc3)c3ccccc3)C(C)=C1C2(C)C
0.4 | CC(=O)O[C@H]1C(=O)[C@@]2(C)[C@H]([C@H](OC(=O)c3ccccc3)[C@]3(O)C[C@H](OC(=O)[C@H](O)[C@@H](NC(=O)c4ccoc4)c4ccccc4)C(C)=C1C3(C)C)[C@]1(OC(C)=O)CO[C@@H]1C[C@@H]2O
5.6 | CC(=O)O[C@H]1C(=O)[C@@]2(C)[C@H]([C@H](OC(=O)c3ccccc3)[C@]3(O)C[C@H](OC(=O)[C@H](O)CNC(=O)c4ccccc4)C(C)=C1C3(C)C)[C@]1(OC(C)=O)CO[C@@H]1C[C@@H]2O
3.4 | CC(=O)O[C@H]1C(=O)[C@]2(C)[C@@H](OC(=O)c3ccc(C(=[N+]=[N-])C(F)(F)F)cc3)C[C@H]3OC[C@@]3(OC(C)=O)[C@H]2[C@H](OC(=O)c2ccccc2)[C@]2(O)C[C@H](OC(=O)[C@H](O)[C@@H](NC(=O)c3ccccc3)c3ccccc3)C(C)=C1C2(C)C
7.1 | CC(=O)O[C@H]1C(=O)[C@@]2(C)[C@H]([C@H](OC(=O)c3ccccc3)[C@]3(O)C[C@H](OC(=O)[C@H](O)[C@@H](NC(=O)c4ccccc4)c4ccc(Cl)c(Cl)c4)C(C)=C1C3(C)C)[C@]1(OC(C)=O)CO[C@@H]1C[C@@H]2O
0.5 | C/C=C(\C)C(=O)N[C@@H](c1ccccc1)[C@@H](O)C(=O)O[C@H]1C[C@@]2(O)[C@@H](OC(=O)c3ccccc3)[C@@H]3[C@]4(OC(C)=O)CO[C@@H]4C[C@H](OC(=O)[C@H](O)[C@@H](O)[C@H](O)CO)[C@@]3(C)C(=O)[C@H](OC(C)=O)C(=C1C)C2(C)C
21.2 | CC(=O)O[C@H]1C(=O)[C@@]2(C)[C@H]([C@H](OC(=O)c3ccccc3)[C@]3(O)C[C@H](OC(=O)C[C@H](NC(=O)c4ccccc4)c4ccccc4)C(C)=C1C3(C)C)[C@]1(OC(C)=O)CO[C@@H]1C[C@@H]2O
21.4 | CC(=O)O[C@H]1C(=O)[C@]2(C)[C@@H](OC(=O)c3ccc(N=[N+]=[N-])cc3)C[C@H]3OC[C@@]3(OC(C)=O)[C@H]2[C@H](OC(=O)c2ccccc2)[C@]2(O)C[C@H](OC(=O)[C@H](O)[C@@H](NC(=O)c3ccccc3)c3ccccc3)C(C)=C1C2(C)C
0.7 | CC(=O)O[C@H]1C(=O)[C@@]2(C)[C@H]([C@H](OC(=O)c3ccccc3)[C@]3(O)C[C@H](OC(=O)[C@H](O)[C@@H](NC(=O)c4ccccc4)c4ccccn4)C(C)=C1C3(C)C)[C@]1(OC(C)=O)CO[C@@H]1C[C@@H]2O
0.4 | CC(=O)O[C@H]1C(=O)[C@@]2(C)[C@H]([C@H](OC(=O)c3ccccc3)[C@]3(O)C[C@H](OC(=O)[C@H](O)[C@@H](NC(=O)c4ccccc4)c4ccncc4)C(C)=C1C3(C)C)[C@]1(OC(C)=O)CO[C@@H]1C[C@@H]2O
0.9 | CC(=O)O[C@H]1C(=O)[C@@]2(C)[C@H]([C@H](OC(=O)c3ccccc3)[C@]3(O)C[C@H](OC(=O)[C@H](O)[C@@H](NC(=O)c4ccccc4)c4ccco4)C(C)=C1C3(C)C)[C@]1(OC(C)=O)CO[C@@H]1C[C@@H]2O
